Data: patent US4529593A, “Use of gallium salts to treat disorders of calcium homeostasis” (Sloan-Kettering Institute for Cancer Research, priority 1984, dated 1985)

Legend:
[1] = tested on: animal and human tumors; conditions: certain animal and human tumors; Warrell 1983, Adamson 1975; cited from earlier work
[2] = tested on: explanted bones; assay: PGE2 release from explanted fetal rat bones; format: cell-based
[3] = intravenous infusion, clinical dose; Kelsen et al 1980; cited from earlier work
[4] = tested on: cancer-related hypercalcemia; assay: treatment of cancer-related hypercalcemia with gallium nitrate; format: in vivo, patients; conditions: for Serum calcium, Post-Treatment: 100 mg/sq m/d × 5 d; for Total Serum Calcium, Post-Treatment: 200 mg/sq m/d × 5-7 d
Experimental: Summary: In the initial study, gallium nitrate was used for the treatment of 10 patients with cancer-related hypercalcemia. The daily dose of drug was 200 mg/sq m administered as a continuous infusion for durations ranging from 5-7 days. The diagnoses of this patient population and the change in total serum calcium concentration in response to this therapy are presented in Table 4a.
The subsequent increase of their disease was not accompanied by an increase in serum calcium which indicates a persistent control of the metabolic problem despite lack of control of the underlying cancer. All other patients who received the drug manifested progressive cancer despite control of the hypercalcemia. […] In a subsequent study, we further reduced the daily dose of gallium nitrate to 100 mg/sq m administered for 5 days. At a lower dose, 5 of 8 patients were normalized (Table 4b). These preliminary clinical results reflect our preclinical studies previously detailed, namely that there exists a distinct dose-response relation to the anti-calcium effect (Warrell, R. P. Jr, Bockman, R. S. et al, J. Clin. Invest. 73:1487 (1984 )).

O=[N+]([O-])[O-].O=[N+]([O-])[O-].O=[N+]([O-])[O-].[Ga+3] [gallium nitrate]
anticancer activity [1]: modest anticancer activity | PGE2 release from explanted bones ([2]; 10 mcg/ml, 24-48 h, vs non-treated bones): no change in PGE2 over control | PGE2 release ([2]; 48 h preincubation, 1, 5 and 10 mcg/ml): no significant change in PGE2 release | PGE2 ([2]; PTH, gallium 1 mcg/ml, 48 h preincubation, 0 gallium: 1.4, control 1.2): 2.2 ng/bone | PGE2 ([2]; PTH, gallium 5 mcg/ml, 48 h preincubation, 0 gallium: 1.4, control 1.2): 1.3 ng/bone | PGE2 ([2]; PTH, gallium 10 mcg/ml, 48 h preincubation, 0 gallium: 1.4, control 1.2): 3.9 ng/bone | PGE2 release of gallium treated bones on exposure to lymphokine, but not PTH ([2]; gallium treated bones exposed to lymphokine): significant increase in PGE2 release | PGE2 ([2]; lymphokine, gallium 1 mcg/ml, 48 h preincubation, 0 gallium: 17.1, control 2.0): 17.4 ng/bone | PGE2 ([2]; lymphokine, gallium 5 mcg/ml, 48 h preincubation, 0 gallium: 17.1, control 2.0): 16.7 ng/bone | PGE2 ([2]; lymphokine, gallium 10 mcg/ml, 48 h preincubation, 0 gallium: 17.1, control 2.0): 15.1 ng/bone | steady-state plasma gallium concentration [3]: 0.9 to 2.0 µg/mL | patients normalized ([4]; 100 mg/sq m for 5 days): 5 of 8 | Serum calcium, Post-Treatment ([4]; Patient 1, Breast, pre-treatment 13.9): 11.3 mg/dL | Serum calcium, Post-Treatment ([4]; Patient 2, Anus, pre-treatment 12.7): 6.3 mg/dL | Serum calcium, Post-Treatment ([4]; Patient 3, Kidney, pre-treatment 14.3): 12.0 mg/dL | Serum calcium, Post-Treatment ([4]; Patient 4, Breast, pre-treatment 14.5): 8.7 mg/dL | Serum calcium, Post-Treatment ([4]; Patient 5, Pancreas, pre-treatment 14.6): 10.0 mg/dL | Serum calcium, Post-Treatment ([4]; Patient 6, Myeloma, pre-treatment 15.0): 13.7 mg/dL | Serum calcium, Post-Treatment ([4]; Patient 7, Lung, pre-treatment 13.0): 10.8 mg/dL | Serum calcium, Post-Treatment ([4]; Patient 8, Breast, pre-treatment 17.0): 9.0 mg/dL | response (serum calcium concentration) ([4]; 200 mg/sq m/d continuous infusion 5-7 days, 10 patients): all patients responded to this treatment by a reduction in serum calcium concentration to normal (and frequently sub-normal) values | Total Serum Calcium, Post-Treatment ([4]; Patient 1, Breast, pre-treatment 13.8): 8.9 mg/dL | Total Serum Calcium, Post-Treatment ([4]; Patient 2, Breast, pre-treatment 15.2): 8.5 mg/dL | Total Serum Calcium, Post-Treatment ([4]; Patient 3, Lymphoma, pre-treatment 15.6): 6.6 mg/dL | Total Serum Calcium, Post-Treatment ([4]; Patient 4, Head & Neck, pre-treatment 12.3): 8.5 mg/dL | Total Serum Calcium, Post-Treatment ([4]; Patient 5, Breast, pre-treatment 14.4): 7.7 mg/dL | Total Serum Calcium, Post-Treatment ([4]; Patient 6, Lymphoma, pre-treatment 15.6): 8.6 mg/dL | Total Serum Calcium, Post-Treatment ([4]; Patient 7, Lung, pre-treatment 12.5): 7.0 mg/dL | Total Serum Calcium, Post-Treatment ([4]; Patient 8, Penis, pre-treatment 12.3): 9.3 mg/dL | Total Serum Calcium, Post-Treatment ([4]; Patient 9, Head & Neck, pre-treatment 13.5): 7.8 mg/dL | Total Serum Calcium, Post-Treatment ([4]; Patient 10, Lung, pre-treatment 13.7): 9.3 mg/dL | size of a lymphomatous mass ([4]; 200 mg/sq m/d, Patient 5, followed by progression and death): transient decrease in the size of a lymphomatous mass | anti-cancer effect associated with hypocalcemic effect ([4]; 200 mg/sq m/d, all patients except Patient 5): not associated with any anti-cancer effect
